# Experimental data from US4316889A, “Novel peptidyl-arginine aldehyde derivatives and process for the preparation thereof” (Richter Gedeon Vegyeszeti Gyar Rt., priority 1979, dated 1982).
# Square brackets hold non-standard residues; d marks the D form. Peptide text beside a SMILES is read from it. * marks the point of attachment. d(aIle) = CC[C@H](C)[C@@H](N)C(=O)O; Bz = O=C(c1ccccc1)*
# Experiments:
# [1] = target: T1, US Standard Human Thrombin (Homo sapiens, UniProt P00734); experiment: Antithrombin activity: amount of drug for tenfold increase of the thrombin-time of fibrinogen; type: biochemical; conditions: for Amount of drug required for tenfold increase of thrombin-time following dissolution of peptide, 0 hour: 0 hour after dissolution in TRIS/HCl buffer pH=7.4, bovine fibrinogen, thrombin 5 U/ml; for relative activity (ra), 20 hours: 20 hours in TRIS/HCl buffer, relative to H-D-Phe-Pro-Arg(COOH)-H at 0 hour = 100; for Amount of drug required for tenfold increase of thrombin-time following dissolution of peptide, 20 hours: 20 hours standing in TRIS/HCl buffer pH=7.4; for change of antithrombin potency upon standing in solution: TRIS/HCl buffer, pH=7.4
# T1 construct: US Standard Human Thrombin; purchased NIH, Bethesda, Maryland, USA
# Procedure: Antithrombin activity is defined by the amount of drug required for a tenfold increase of the thrombin-time of fibrinogen (thrombintime: time of clotting induced by thrombin).
# Antithrombin activities were assayed in the following system:
# 0.5 percent bovine fibrinogen (0.2 ml). in 0.9 percent sodium chloride solution, peptide in TRIS/HCl buffer (0.1 ml., pH=7.4), and US Standard Human Thrombin (0.1 ml.) (NIH, Bethesda, Maryland, USA; 5 U/ml.). The clotting time of the system devoid of peptide is 15 seconds.
# thrombin-time = experiment: In vivo antithrombin activity after oral administration to dogs, measured in a Thromboelastograph; parameters: species or system dog; conditions: 50 mg./kg., for a period of two hours
# Description: (§1) This effect is substantial not only at intravenous, intramuscular and subcutaneous but also at oral administration.
# thrombin [2] = target: thrombin (Homo sapiens, UniProt P00734); conditions: Hungarian Patent No. 169,870; cited from earlier work
# plasmin = plasmin (Homo sapiens, UniProt P00747); conditions: literature (Kawamura et al.; Umezawa); cited from earlier work
# Chain of plasmin (P00747 581-810 limits assumed, species assumed): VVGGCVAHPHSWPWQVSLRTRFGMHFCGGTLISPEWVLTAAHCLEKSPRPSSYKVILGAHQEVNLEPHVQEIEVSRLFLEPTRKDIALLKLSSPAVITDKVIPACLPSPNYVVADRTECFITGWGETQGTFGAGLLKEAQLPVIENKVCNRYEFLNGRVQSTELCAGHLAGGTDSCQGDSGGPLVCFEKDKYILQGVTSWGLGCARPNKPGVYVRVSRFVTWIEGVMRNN
# Chain of plasmin (P00747 97-580 partner limits assumed, species assumed): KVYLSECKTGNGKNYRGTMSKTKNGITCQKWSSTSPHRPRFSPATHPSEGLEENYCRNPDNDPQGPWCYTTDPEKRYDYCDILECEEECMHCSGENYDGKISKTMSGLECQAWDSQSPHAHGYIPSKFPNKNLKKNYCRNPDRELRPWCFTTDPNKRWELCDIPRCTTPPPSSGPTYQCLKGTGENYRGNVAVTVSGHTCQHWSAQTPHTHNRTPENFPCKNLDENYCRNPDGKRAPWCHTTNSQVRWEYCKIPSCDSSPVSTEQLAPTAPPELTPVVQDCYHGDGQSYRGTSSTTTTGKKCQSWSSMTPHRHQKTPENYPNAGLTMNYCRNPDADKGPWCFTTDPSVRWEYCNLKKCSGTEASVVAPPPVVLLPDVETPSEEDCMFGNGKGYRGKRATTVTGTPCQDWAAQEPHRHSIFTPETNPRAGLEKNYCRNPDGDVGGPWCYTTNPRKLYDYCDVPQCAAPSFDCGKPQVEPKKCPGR
# trypsin = conditions: literature (Kawamura et al.; Umezawa); cited from earlier work
# papain = target: T2, papain (Carica papaya, UniProt P00784); conditions: literature (Kawamura et al.; Umezawa); cited from earlier work
# T2 sequence (P00784 134-345): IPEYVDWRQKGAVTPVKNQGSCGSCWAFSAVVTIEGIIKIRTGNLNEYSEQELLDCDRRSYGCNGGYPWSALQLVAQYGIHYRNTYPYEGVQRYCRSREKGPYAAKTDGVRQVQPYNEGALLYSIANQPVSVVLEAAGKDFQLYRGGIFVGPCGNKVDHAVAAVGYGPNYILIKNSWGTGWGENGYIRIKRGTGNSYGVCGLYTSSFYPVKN
# thrombin [3] = experiment: In vivo trials of antithrombin activity on five species; conditions: mouse, rat, rabbit, dog, monkey; intravenous, intramuscular, subcutaneous and oral administration
# Description: as §1
compound,measurement,setting,value
"CC(=O)O.N=C(N)NCCC[C@@H](C=O)NC(=O)[C@@H]1CCCN1C(=O)[C@H](N)Cc1ccccc1 [H--D-Phe-- Pro--Arg--H . 2 CH3 COOH, D-phenylalanyl-L-prolyl-L-arginine aldehyde acetate]","Amount of drug required for tenfold increase of thrombin-time following dissolution of peptide, 0 hour",[1],0.37 to 1.25 µg/mL
same,"relative activity (ra), 20 hours",[1],4
same,"Amount of drug required for tenfold increase of thrombin-time following dissolution of peptide, 20 hours",[1],6.2 µg/mL
same,change of antithrombin potency upon standing in solution,[1],reduced
same,increase of thrombin-time in vivo,thrombin-time,practically no influence
same,antithrombin activity (literature),thrombin [2],marked antithrombin activity
"Cl.N=C(N)NCCC[C@@H](C=O)NC(=O)[C@@H]1CCCN1C(=O)[C@H](N)Cc1ccccc1 [H--D-Phe-- Pro--Arg--H . 2HCl, D-phenylalanyl-L-prolyl-L-arginine aldehyde hydrochloride]","Amount of drug required for tenfold increase of thrombin-time following dissolution of peptide, 0 hour",[1],0.35 to 0.95 µg/mL
same,"relative activity (ra), 20 hours",[1],5
same,"Amount of drug required for tenfold increase of thrombin-time following dissolution of peptide, 20 hours",[1],6.0 µg/mL
same,change of antithrombin potency upon standing in solution,[1],reduced
same,increase of thrombin-time in vivo,thrombin-time,practically no influence
CC(=O)N[C@@H](CC(C)C)C(=O)N[C@@H](CC(C)C)C(=O)N[C@H](C=O)CCCNC(=N)N.Cl [acetyl-L-leucyl-L-leucyl-arginine aldehyde hydrochloride],inhibition of plasmin,plasmin,capable to inhibit
same,inhibition of trypsin,trypsin,capable to inhibit
same,inhibition of papain,papain,capable to inhibit
CC[C@H](C)[C@@H](NC(=O)c1ccccc1)C(=O)N1CCC[C@H]1C(=O)N[C@H](C=O)CCCNC(=N)N.Cc1ccc(S(=O)(=O)O)cc1 [benzoyl-D-allo-isoleucyl-L-prolyl-L-arginine aldehyde p-toluenesulfonate] (Bz-[d(aIle)]-Pro-Arg-aldehyde),antithrombin activity (literature),thrombin [2],marked antithrombin activity
CCC(=O)N[C@@H](CC(C)C)C(=O)N[C@@H](CC(C)C)C(=O)N[C@H](C=O)CCCNC(=N)N.Cl [propionyl-L-leucyl-L-leucyl-arginine aldehyde hydrochloride],inhibition of plasmin,plasmin,capable to inhibit
same,inhibition of trypsin,trypsin,capable to inhibit
same,inhibition of papain,papain,capable to inhibit
D-Phenylalanyl-L-prolyl-N^G -carboxyl-L-arginine aldehyde [H--D-Phe-- Pro--Arg(COOH)--H],"Amount of drug required for tenfold increase of thrombin-time following dissolution of peptide, 0 hour",[1],0.275 µg/mL
same,"relative activity (ra), 0 hour","[1]; 0 hour, activity of H-D-Phe-Pro-Arg(COOH)-H arbitrarily taken as 100",100
same,"relative activity (ra), 20 hours",[1],92
same,"Amount of drug required for tenfold increase of thrombin-time following dissolution of peptide, 20 hours",[1],0.300 µg/mL
same,antithrombin (enzyme inhibitory) activity compared with the free tripeptide aldehyde salt of corresponding sequence,"[1]; thrombin-fibrinogen reaction, versus H-D-Phe-Pro-Arg-H hydrochloride or acetate",higher
same,increase of thrombin-time in vivo,thrombin-time,four to sixfold
same,in vivo antithrombin effect,thrombin [3],substantial
